The values below come from PubChem BioAssay (NCI).

Test systems include 786-0 renal; A549 NSCLC; COLO 205 colon; EKVX NSCLC; HL-60(TB) leukemia; HOP-62 NSCLC; HOP-92 NSCLC; KM12 colon; NCI-H522 lung; OVCAR-5 ovarian; OVCAR-8 ovarian; PC-3 prostate; RPMI-8226 leukemia; RXF 393 renal; SK-MEL-5 melanoma; SN12C renal; UO-31 renal; A498 renal.
Assay in all cases: NCI-60 cell line screen, 48 h

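Exposure lasted 48 hours, with cells grown in 96-well plates and compounds tested at five concentrations. TGI: concentration producing complete growth inhibition.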

`c1ccc2c(c1)cc1c3[nH]c4ccccc4c3ccn21`: the TGI in the experiment with 786-0 renal was above 10 µM; with A549 NSCLC it was above 10 µM; in the experiment with COLO 205 colon it was 3.41 µM; in the experiment on EKVX NSCLC, above 10 µM; in the experiment with HL-60(TB) leukemia, above 10 µM; in the experiment with HOP-62 NSCLC, above 10 µM. In addition, the TGI with HOP-92 NSCLC, in the experiment with KM12 colon, in the experiment on NCI-H522 lung, with OVCAR-5 ovarian, in the experiment on OVCAR-8 ovarian and in the experiment on PC-3 prostate was above 10 µM each time. Besides, the TGI with RPMI-8226 leukemia, in the experiment with RXF 393 renal, in the experiment on SK-MEL-5 melanoma, in the experiment with SN12C renal and in the experiment on UO-31 renal was above 10 µM throughout.
As for `O=C(c1ccccc1)N1OCCC1Nc1ccc(Br)cc1` (stereo not given), the TGI in the experiment on 786-0 renal is above 10 µM; with A549 NSCLC, above 10 µM; in the experiment with COLO 205 colon, 4.33 µM; with EKVX NSCLC, above 10 µM; with HL-60(TB) leukemia, above 10 µM; with HOP-62 NSCLC, above 10 µM. Moreover, the TGI in the experiment with NCI-H522 lung, in the experiment with OVCAR-5 ovarian, in the experiment with OVCAR-8 ovarian, with PC-3 prostate, in the experiment on RPMI-8226 leukemia and with RXF 393 renal was above 10 µM in each case. The results for the TGI with SK-MEL-5 melanoma, in the experiment with SN12C renal and in the experiment on UO-31 renal were above 10 µM, above 10 µM and 8.81 µM, respectively.
Take `CC(=O)N1C(NN(C)C)CCN1c1ccccc1` (stereo not given): the TGI in the experiment on 786-0 renal, in the experiment on A549 NSCLC, in the experiment on COLO 205 colon, in the experiment on EKVX NSCLC, with HL-60(TB) leukemia and in the experiment with HOP-62 NSCLC was above 10 µM throughout. The TGI in the experiment with HOP-92 NSCLC, with KM12 colon, in the experiment with OVCAR-8 ovarian, with PC-3 prostate, with RPMI-8226 leukemia and with RXF 393 renal was above 10 µM throughout. The TGI in the experiment with SK-MEL-5 melanoma and in the experiment on SN12C renal was above 10 µM each time.
With `O=c1n(-c2ccccc2)c(=O)n2n1C1Cc3ccccc3C12` (stereo not given), the TGI in the experiment on 786-0 renal, in the experiment with A498 renal, in the experiment on A549 NSCLC, in the experiment with COLO 205 colon, with EKVX NSCLC and in the experiment with HL-60(TB) leukemia was above 100 µM in each case. In addition, the TGI with HOP-62 NSCLC, in the experiment with HOP-92 NSCLC, in the experiment on KM12 colon, in the experiment on OVCAR-5 ovarian, with OVCAR-8 ovarian and with PC-3 prostate was above 100 µM in each case. For the same compound, the TGI in the experiment with RPMI-8226 leukemia, in the experiment with SK-MEL-5 melanoma, in the experiment with SN12C renal and in the experiment on UO-31 renal was above 100 µM throughout.
Take `CC(C)(C)OC(=O)N1CCC2(C)CC(=O)CC=C12` (stereo not given): the TGI with 786-0 renal, in the experiment with A549 NSCLC, in the experiment with COLO 205 colon, in the experiment on EKVX NSCLC, in the experiment on HL-60(TB) leukemia and with HOP-62 NSCLC was above 100 µM throughout. Besides, the TGI with HOP-92 NSCLC, in the experiment on KM12 colon, with NCI-H522 lung, with OVCAR-5 ovarian, with OVCAR-8 ovarian and in the experiment with PC-3 prostate was above 100 µM in each case. Moreover, the TGI with RXF 393 renal, in the experiment on SK-MEL-5 melanoma, in the experiment on SN12C renal and in the experiment on UO-31 renal was above 100 µM in each case.
As for `COCn1cnc2c(=O)n(-c3ccc(OC)cc3)c(=S)n(-c3ccc(OC)cc3)c21`, the TGI with 786-0 renal, in the experiment on A498 renal, in the experiment with A549 NSCLC, in the experiment with COLO 205 colon, with EKVX NSCLC and in the experiment with HL-60(TB) leukemia was above 100 µM in each case. For the same compound, the TGI with HOP-62 NSCLC, in the experiment with KM12 colon, in the experiment with NCI-H522 lung, with OVCAR-5 ovarian, with OVCAR-8 ovarian and in the experiment with PC-3 prostate was above 100 µM each time. The TGI in the experiment on RPMI-8226 leukemia, in the experiment on RXF 393 renal, in the experiment on SK-MEL-5 melanoma, with SN12C renal and in the experiment with UO-31 renal was above 100 µM each time.
Take `O=C(Nc1ccccc1)n1[nH]c(=O)n(-c2ccccc2)c1=O`: the TGI with 786-0 renal, in the experiment on A498 renal, with A549 NSCLC, with COLO 205 colon, in the experiment with HL-60(TB) leukemia and in the experiment with HOP-92 NSCLC was above 100 µM throughout. For the same compound, the TGI in the experiment on KM12 colon, in the experiment with NCI-H522 lung, in the experiment on OVCAR-8 ovarian, in the experiment on PC-3 prostate, with RPMI-8226 leukemia and in the experiment on SK-MEL-5 melanoma was above 100 µM throughout. For the same compound, the TGI with SN12C renal and with UO-31 renal was above 100 µM throughout.
Turning to `CN(N)/N=N/c1nc[nH]c1[N+](=O)[O-]`, the TGI in the experiment with 786-0 renal is 55.2 µM; in the experiment with A498 renal, above 100 µM; in the experiment with A549 NSCLC, above 100 µM; with COLO 205 colon it was above 100 µM; in the experiment with EKVX NSCLC, above 100 µM; in the experiment on HL-60(TB) leukemia it was 12.2 µM. Moreover, the TGI in the experiment on HOP-62 NSCLC, with KM12 colon, with NCI-H522 lung, in the experiment on OVCAR-5 ovarian, in the experiment on OVCAR-8 ovarian and with PC-3 prostate was above 100 µM each time. In addition, the TGI is 57.3 µM with RPMI-8226 leukemia; above 100 µM in the experiment on RXF 393 renal; above 100 µM with SK-MEL-5 melanoma; above 100 µM with SN12C renal; above 100 µM in the experiment with UO-31 renal.
Turning to `COc1c(Br)cc(/C=C(\C#N)c2cccnc2)cc1Br`, the TGI in the experiment with 786-0 renal, with A549 NSCLC, in the experiment with COLO 205 colon, in the experiment on EKVX NSCLC, in the experiment on HL-60(TB) leukemia and in the experiment with HOP-62 NSCLC was above 100 µM throughout. In addition, the TGI in the experiment with HOP-92 NSCLC was 75 µM; in the experiment on KM12 colon it was above 100 µM; in the experiment with NCI-H522 lung, above 100 µM; with OVCAR-5 ovarian, above 100 µM; in the experiment with OVCAR-8 ovarian it was above 100 µM; in the experiment with PC-3 prostate, above 100 µM. For the same compound, the TGI with RPMI-8226 leukemia, with RXF 393 renal, in the experiment on SK-MEL-5 melanoma, in the experiment on SN12C renal and with UO-31 renal was above 100 µM each time.
`CCN(CC)c1c(-c2c(N(CC)CC)c(OC(C)=O)c3sccn3c2=O)c(=O)n2ccsc2c1OC(C)=O`: the TGI in the experiment with 786-0 renal was 90.1 µM; in the experiment with A498 renal, above 100 µM; with COLO 205 colon it was above 100 µM; with EKVX NSCLC, above 100 µM; with HL-60(TB) leukemia, above 100 µM; in the experiment on HOP-62 NSCLC it was 46.9 µM. Besides, the TGI in the experiment with HOP-92 NSCLC, in the experiment on KM12 colon, in the experiment with OVCAR-5 ovarian, in the experiment with OVCAR-8 ovarian, in the experiment on PC-3 prostate and in the experiment with RPMI-8226 leukemia was above 100 µM throughout. Further, the TGI with SK-MEL-5 melanoma, in the experiment with SN12C renal and in the experiment with UO-31 renal was above 100 µM each time.
On to `CC(C)(C)c1ccc(-n2c3nc(=O)n(-c4ccccc4CO)c(=O)c-3cc3ccccc32)cc1`, for which the TGI with 786-0 renal was above 100 µM; with A498 renal it was above 100 µM; in the experiment on A549 NSCLC, above 100 µM; in the experiment on COLO 205 colon, above 100 µM; in the experiment on EKVX NSCLC it was above 100 µM; in the experiment on HL-60(TB) leukemia, 56.1 µM. Also, the TGI in the experiment with HOP-92 NSCLC is 97.7 µM; with KM12 colon it was above 100 µM; in the experiment on NCI-H522 lung it was above 100 µM; with OVCAR-5 ovarian it was above 100 µM; in the experiment with OVCAR-8 ovarian, above 100 µM; in the experiment on PC-3 prostate, above 100 µM. Also, the TGI is 55.2 µM with RXF 393 renal, above 100 µM with SK-MEL-5 melanoma, above 100 µM with SN12C renal and above 100 µM with UO-31 renal.
For `S=C1CSc2c(ccc3ccccc23)N1`, the TGI in the experiment with 786-0 renal, in the experiment with A549 NSCLC, in the experiment with COLO 205 colon, in the experiment with EKVX NSCLC, in the experiment on HL-60(TB) leukemia and in the experiment with HOP-62 NSCLC was above 100 µM each time. Further, the TGI with KM12 colon, in the experiment with NCI-H522 lung, in the experiment with OVCAR-5 ovarian, with OVCAR-8 ovarian, with PC-3 prostate and in the experiment with RPMI-8226 leukemia was above 100 µM in each case. In addition, the TGI in the experiment on RXF 393 renal, with SK-MEL-5 melanoma, in the experiment with SN12C renal and in the experiment with UO-31 renal was above 100 µM throughout.
In the case of `CN1C(=O)C(c2c[nH]c3ccccc23)N(C)C(=O)C1c1c[nH]c2ccccc12` (stereo not given), the TGI in the experiment on 786-0 renal, in the experiment with A549 NSCLC, in the experiment with COLO 205 colon, in the experiment with EKVX NSCLC, in the experiment with HL-60(TB) leukemia and with HOP-62 NSCLC was above 100 µM throughout. Also, the TGI in the experiment on HOP-92 NSCLC, with KM12 colon, in the experiment with NCI-H522 lung, in the experiment with OVCAR-5 ovarian, in the experiment on OVCAR-8 ovarian and in the experiment on PC-3 prostate was above 100 µM each time. In addition, the TGI with RXF 393 renal, with SK-MEL-5 melanoma, in the experiment on SN12C renal and in the experiment with UO-31 renal was above 100 µM throughout.
For `Oc1cc(-c2ccc(Cl)cc2)cn2c1nc1ccccc12`, the TGI in the experiment on 786-0 renal, with A498 renal, in the experiment with COLO 205 colon, in the experiment with EKVX NSCLC, in the experiment on HL-60(TB) leukemia and in the experiment with HOP-62 NSCLC was above 100 µM each time. Further, the TGI in the experiment with HOP-92 NSCLC, in the experiment on KM12 colon, in the experiment on NCI-H522 lung, in the experiment on OVCAR-8 ovarian, with PC-3 prostate and in the experiment on RXF 393 renal was above 100 µM in each case. The TGI in the experiment on SN12C renal and in the experiment with UO-31 renal was above 100 µM throughout.
